Assay results: ChEMBL document CHEMBL1641524, “Synthesis and SAR of novel CXCR4 antagonists that are potent inhibitors of T tropic (X4) HIV-1 replication” (Bioorg Med Chem Lett, 2011)

Legend:
[1] = test system: Human immunodeficiency virus 1; assay: Antiviral activity against X4 tropic HIV1 NL4.3 infected in human MT4 cells expressing CD4 and CXCR4 assessed as inhibition of virus-induced cytopathicity; assay type: functional, organism-based; conditions: Human immunodeficiency virus 1, NL4.3, MT4
[2] = Cytotoxicity against human MT4 cells expressing CD4 and CXCR4; assay type: cell-based
[3] = molecular target: T1, C-X-C chemokine receptor type 4 (Homo sapiens, UniProt P61073); assay: Antagonist activity at CXCR4 in human CEM-CCRF cells expressing CD4 assessed as inhibition of SDF-1-induced Ca2+ signaling; assay type: functional, cell-based
[4] = test system: Human immunodeficiency virus 1; assay: Antiviral activity against X4 tropic HIV1 infected in human PBMC assessed as inhibition of virus-induced cytopathicity; assay type: functional, organism-based
[5] = test system: Human immunodeficiency virus 1; assay: Antiviral activity against X4 tropic HIV1 infected in human PBMC assessed as inhibition of virus-induced cytopathicity in presence of 1 mg/mL of alpha-acid glycoprotein; assay type: functional
[6] = molecular target: T1, C-X-C chemokine receptor type 4; assay: Displacement of [125I]SDF-1 from CXCR4 in human CEM-CCRF cells expressing CD4 by liquid scintillation counting; assay type: cell-based
Rattus norvegicus [7] = assay: (§1) Cmax in rat at 10 umol/kg, iv; assay type: ADME, organism-based; parameters: dose 10 umol/kg, route intravenous; conditions: in vivo
[8] = Cmax in dog at 5 umol/kg, iv; assay type: ADME, organism-based, Canis lupus familiaris; parameters: dose 5 umol/kg, route intravenous; conditions: in vivo
Rattus norvegicus [9] = assay: (§2) AUC (0 to infinity) in rat at 10 umol/kg, iv; assay type: ADME, organism-based, Plasma; parameters: dose 10 umol/kg, time infinity, route intravenous; conditions: in vivo
Canis familiaris = assay: (§3) AUC (0 to infinity) in dog at 5 umol/kg, iv; assay type: ADME, organism-based, Canis lupus familiaris, Plasma; parameters: dose 5 umol/kg, time infinity, route intravenous; conditions: in vivo
[10] = Volume of distribution in rat at 10 umol/kg, iv; assay type: ADME, organism-based; conditions: in vivo
[11] = Volume of distribution in dog at 5 umol/kg, iv; assay type: ADME, organism-based, Canis lupus familiaris; conditions: in vivo
Rattus norvegicus [12] = assay: (§4) Half life in rat at 10 umol/kg, iv; assay type: ADME, organism-based; conditions: in vivo
[13] = Half life in dog at 5 umol/kg, iv; assay type: ADME, organism-based, Canis lupus familiaris; conditions: in vivo
[14] = Oral bioavailability in rat at 100 umol/kg; assay type: ADME, organism-based; conditions: in vivo
[15] = Oral bioavailability in dog at 12.5 umol/kg; assay type: ADME, organism-based, Canis lupus familiaris; conditions: in vivo
[16] = as §1; assay type: ADME, organism-based; parameters: dose 10 umol/kg, route intravenous; conditions: in vivo, 10 umol/kg
[17] = as §2; assay type: ADME, organism-based, Plasma; parameters: dose 10 umol/kg, time infinity, route intravenous; conditions: plasma, 10 umol/kg
[18] = as §3; assay type: ADME, organism-based, Canis lupus familiaris, Plasma; parameters: dose 5 umol/kg, time infinity, route intravenous; conditions: plasma, 5 umol/kg
[19] = Clearance in rat at 10 umol/kg, iv; assay type: ADME, organism-based; conditions: in vivo
[20] = Clearance in dog at 5 umol/kg, iv; assay type: ADME, organism-based, Canis lupus familiaris; conditions: in vivo
[21] = as §4; assay type: ADME, organism-based; conditions: in vivo, 10 umol/kg

T1 sequence (P61073 whole entry): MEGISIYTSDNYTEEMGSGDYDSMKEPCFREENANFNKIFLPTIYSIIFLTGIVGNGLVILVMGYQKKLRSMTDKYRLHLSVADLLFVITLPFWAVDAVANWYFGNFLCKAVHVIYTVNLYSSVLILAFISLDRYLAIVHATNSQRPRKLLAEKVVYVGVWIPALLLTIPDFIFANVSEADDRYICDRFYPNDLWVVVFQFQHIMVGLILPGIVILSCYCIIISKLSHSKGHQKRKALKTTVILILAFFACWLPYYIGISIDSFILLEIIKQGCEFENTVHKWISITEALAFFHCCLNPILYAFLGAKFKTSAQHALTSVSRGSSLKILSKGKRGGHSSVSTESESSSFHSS

SMILES: NCc1ccc(CN(Cc2nc3ccccc3[nH]2)C2CCCc3cccnc32)o1 (configuration not stated)
- IC50 [1]: 3570 nM
- CC50 [2]: 28500 nM

SMILES: NCc1ocnc1CN(Cc1nc2ccccc2[nH]1)C1CCCc2cccnc21 (configuration not stated)
- IC50 [1]: 2830 nM
- CC50 [2]: 32900 nM

SMILES: NCc1cc(C(F)(F)F)ccc1CN(Cc1nc2ccccc2[nH]1)C1CCCc2cccnc21 (configuration not stated)
- IC50 [1]: 104 nM
- CC50 [2]: 26600 nM
- IC50 [3]: 51 nM

SMILES: NCc1cc(C(N)=O)ccc1CN(Cc1nc2ccccc2[nH]1)C1CCCc2cccnc21 (configuration not stated)
- IC50 [1]: 12 nM
- CC50 [2]: 120000 nM
- IC50 [3]: 15 nM

SMILES: NCc1nc(CN(Cc2nc3ccccc3[nH]2)C2CCCc3cccnc32)co1 (configuration not stated)
- IC50 [1]: 20100 nM
- CC50 [2]: 28500 nM

SMILES: NCc1ccc(CN(Cc2nc3ccccc3[nH]2)C2CCCc3cccnc32)s1 (configuration not stated)
- IC50 [1]: 2480 nM
- CC50 [2]: 28500 nM

SMILES: NCc1cc(F)ccc1CN(Cc1nc2ccccc2[nH]1)C1CCCc2cccnc21 (configuration not stated)
- IC50 [1]: 165 nM
- CC50 [2]: 45600 nM
- IC50 [3]: 219 nM

SMILES: NCc1nccnc1CN(Cc1nc2ccccc2[nH]1)C1CCCc2cccnc21 (configuration not stated)
- IC50 [1]: > 1230 nM
- CC50 [2]: 6100 nM

SMILES: NCc1sccc1CN(Cc1nc2ccccc2[nH]1)C1CCCc2cccnc21 (configuration not stated)
- IC50 [1]: 14 nM
- CC50 [2]: 31500 nM
- IC50 [3]: 60 nM

SMILES: NCc1ccccc1CN(Cc1nc2ccccc2[nH]1)C1CCCc2cccnc21 (configuration not stated)
- IC50 [3]: 28 nM

SMILES: NCc1ncccc1CN(Cc1nc2ccccc2[nH]1)[C@H]1CCCc2cccnc21
- IC50 [1]: 4.2 nM
- IC50 [4]: 9.9 nM
- fold change (FC) [5]: 24
- IC50 [6]: 19.8 nM
- Cmax (Rattus norvegicus [7]): 1200 nM
- Cmax [8]: 4200 nM
- AUC (Rattus norvegicus [9]): 5.4 µM·h
- AUC (Canis familiaris): 13.5 µM·h
- Vd [10]: 6.6 L/kg
- Vd [11]: 2.6 L/kg
- t1/2 (Rattus norvegicus [12]): 0.8 h
- half-life [13]: 5.7 h
- bioavailability [14]: 22%
- bioavailability [15]: 84%

SMILES: NCc1ccoc1CN(Cc1nc2ccccc2[nH]1)C1CCCc2cccnc21 (configuration not stated)
- IC50 [1]: 0.4 nM
- CC50 [2]: 28500 nM
- IC50 [3]: 12 nM

SMILES: NCc1cscc1N(Cc1nc2ccccc2[nH]1)C1CCCc2cccnc21 (configuration not stated)
- IC50 [1]: 103 nM
- CC50 [2]: 32900 nM
- IC50 [3]: 13 nM

SMILES: NCc1cocc1N(Cc1nc2ccccc2[nH]1)[C@H]1CCCc2cccnc21
- IC50 [1]: 0.31 nM
- IC50 [4]: 4.1 nM
- fold change (FC) [5]: 17
- IC50 [6]: 44.5 nM
- Cmax [16]: 3000 nM
- Cmax [8]: 4700 nM
- AUC(0-inf) [17]: 12.5 µM·h
- AUC(0-inf) [18]: 16.4 µM·h
- clearance [19]: 23.3 mL/min/kg
- clearance [20]: 3.7 mL/min/kg
- Vd [10]: 3.6 L/kg
- Vd [11]: 0.7 L/kg
- half-life [21]: 2.1 h
- half-life [13]: 2.7 h
- bioavailability [14]: 17%
- bioavailability [15]: 28%

SMILES: CO/N=C/c1ccc(CN(Cc2nc3ccccc3[nH]2)C2CCCc3cccnc32)c(CN)c1 (configuration not stated)
- IC50 [1]: 22 nM
- CC50 [2]: 26800 nM
- IC50 [3]: 5 nM

SMILES: NCc1ccc(CN(Cc2nc3ccccc3[nH]2)C2CCCc3cccnc32)c(CN)c1 (configuration not stated)
- IC50 [1]: 2 nM
- CC50 [2]: 122000 nM
- IC50 [3]: 10 nM

SMILES: COc1ccc(CN(Cc2nc3ccccc3[nH]2)C2CCCc3cccnc32)c(CN)c1 (configuration not stated)
- IC50 [1]: 18 nM
- CC50 [2]: 36500 nM
- IC50 [3]: 5 nM

SMILES: NCc1ccncc1CN(Cc1nc2ccccc2[nH]1)C1CCCc2cccnc21 (configuration not stated)
- IC50 [1]: 124 nM
- CC50 [2]: 128000 nM
- IC50 [3]: 160 nM

SMILES: COCc1ccc(CN(Cc2nc3ccccc3[nH]2)C2CCCc3cccnc32)c(CN)c1 (configuration not stated)
- IC50 [1]: 20 nM
- CC50 [2]: 201000 nM
- IC50 [3]: 21 nM

SMILES: NCc1cc(CO)ccc1CN(Cc1nc2ccccc2[nH]1)C1CCCc2cccnc21 (configuration not stated)
- IC50 [1]: 17 nM
- CC50 [2]: 37500 nM
- IC50 [3]: 11 nM

SMILES: NCc1ncccc1CN(Cc1nc2ccccc2[nH]1)C1CCCc2cccnc21 (configuration not stated)
- IC50 [1]: 21 nM
- CC50 [2]: 150000 nM
- IC50 [3]: 21 nM

SMILES: NCc1occc1CN(Cc1nc2ccccc2[nH]1)C1CCCc2cccnc21 (configuration not stated)
- IC50 [1]: 8 nM
- CC50 [2]: 50000 nM
- IC50 [3]: 21 nM

SMILES: NCc1cocc1N(Cc1nc2ccccc2[nH]1)C1CCCc2cccnc21 (configuration not stated)
- IC50 [1]: 10.9 nM
- CC50 [2]: 30200 nM
- IC50 [3]: 25 nM

SMILES: NCc1cc(C(=O)O)ccc1CN(Cc1nc2ccccc2[nH]1)C1CCCc2cccnc21 (configuration not stated)
- IC50 [1]: 69 nM
- CC50 [2]: 137000 nM
- IC50 [3]: 126 nM

SMILES: NCc1[nH]cnc1CN(Cc1nc2ccccc2[nH]1)C1CCCc2cccnc21 (configuration not stated)
- IC50 [1]: > 1160 nM
- CC50 [2]: 5800 nM

SMILES: COC(=O)c1ccc(CN(Cc2nc3ccccc3[nH]2)C2CCCc3cccnc32)c(CN)c1 (configuration not stated)
- IC50 [1]: 105 nM
- CC50 [2]: 42200 nM
- IC50 [3]: 39 nM

SMILES: NCc1cscc1N(Cc1nc2ccccc2[nH]1)[C@H]1CCCc2cccnc21
- IC50 [1]: 0.99 nM
- IC50 [4]: 2 nM
- fold change (FC) [5]: 28
- IC50 [6]: 88.9 nM
- Cmax [16]: 1400 nM
- Cmax [8]: 2600 nM
- AUC(0-inf) [17]: 3.7 µM·h
- AUC (Canis familiaris): 3.7 µM·h
- clearance [19]: 27.2 mL/min/kg
- Vd [10]: 5.2 L/kg
- Vd [11]: 2.2 L/kg
- half-life [21]: 1.7 h
- half-life [13]: 3.4 h
- bioavailability [14]: 6%
- bioavailability [15]: 9%

SMILES: NCc1ncoc1CN(Cc1nc2ccccc2[nH]1)C1CCCc2cccnc21 (configuration not stated)
- IC50 [1]: 7.2 nM
- CC50 [2]: 64500 nM
- IC50 [3]: 1.3 nM
